Experimental findings from US8921398B2 (Boehringer Ingelheim International GmbH, priority 2011, dated 2014) are described below.

The pEC50 is −log10 of the EC50, conventionally taken in molar units. A high value points to a small EC50.

pEC50: −log10 of the molar value.

The experiment addresses T1, mutant form of the human GPR119 receptor (Homo sapiens, UniProt Q8TDV5, S329A/T327A).
T1 construct: expressed in transfected cells
T1 sequence (Q8TDV5 with tags, fused parts or gaps T327A/S329A): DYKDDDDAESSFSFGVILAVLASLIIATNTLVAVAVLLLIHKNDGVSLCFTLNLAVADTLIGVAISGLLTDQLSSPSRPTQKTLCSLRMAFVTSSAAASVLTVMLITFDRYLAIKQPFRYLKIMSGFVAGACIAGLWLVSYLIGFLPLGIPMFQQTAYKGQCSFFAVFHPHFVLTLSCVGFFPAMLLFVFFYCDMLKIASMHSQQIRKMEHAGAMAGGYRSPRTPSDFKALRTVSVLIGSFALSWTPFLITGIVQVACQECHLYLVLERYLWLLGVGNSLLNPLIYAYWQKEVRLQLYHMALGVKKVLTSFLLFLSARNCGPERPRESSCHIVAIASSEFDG
Description: LANCE cAMP-384 assay in HEK293 cells stably expressing a mutant form of the human GPR119 receptor. Format: cell-based. The conditions noted are these: cAMP accumulation, GPR119 stable HEK293 cells, LANCE kit, 20 min at 37° C. The protocol: Quantitative detection of cAMP accumulation from cells expressing human GPR119 receptor is achieved using Perkin Elmer's LANCE cAMP-384 Kit (Cat#AD0264) according to the manufacturer's protocol. Briefly, HEK293 cells stably expressing a mutant form of the human GPR119 receptor as assay tool (Methionine 1 replaced with the amino acid sequence […], and T327 & S329 changed to alanines; SEQ ID No. 1) are grown to 50-70% confluency in cell culture media (DMEM, 10% heat inactivated Fetal Bovine Serum, 50 I.U./mL penicillin, 50 μg/mL streptomycin, 10 mM HEPES, 20 μg/mL G418 Sulfate). On the day of the assay, GPR119 stable HEK293 cells are lifted from the tissue culture plate and 1000 cells/well are incubated along with various concentrations of test compounds for 20 min at 37° C. Detection Buffer (50 mM HEPES, 10 mM calcium chloride, 0.35% Triton X-100, 1 mg/mL BSA) containing cAMP-specific antibody is then added to all wells and allowed to equilibrate in the dark for 10 minutes at room temperature. Upon equilibration, Detection Buffer containing europium-labeled cAMP tracer complex is added to all wells and allowed to react for 1 hour at room temperature. After 1 hour, bound europium-labeled cAMP tracer is measured using a Perkin Elmer Envision plate reader. The quantity of cAMP generated in each well is derived from a standard curve. EC50 is determined using nonlinear regression analysis of the cAMP values over a range of agonist concentration (12 points spanning the range from 30 μM to 100 pM).
(In TR-FRET formats the signal depends on donor and acceptor labels being close together.)
Take `Cc1ncnn1-c1ccc(C(=O)N(C2CC2)[C@H]2CCN(c3ccc(C(F)(F)F)cn3)C[C@H]2F)cn1` (single isomer, unassigned) [Example 69]: the pEC50 is 6.30.
Next, `Cc1nnnn1-c1ccc(C(=O)N(C2CC2)[C@H]2CCN(c3ccc(C(F)(F)F)cn3)C[C@H]2F)cn1` (single isomer, unassigned) [Example 70]: 6.90; `O=C(c1cnc(-n2cncn2)cn1)N(C1CC1)[C@H]1CCN(c2ccc(C(F)(F)F)cn2)C[C@H]1F` (single isomer, unassigned) [Example 71]: 7.03.
In turn, `Cc1nccn1-c1ncc(C(=O)N(C2CC2)[C@H]2CCN(c3ccc(C(F)(F)F)cn3)C[C@H]2F)cn1` (single isomer, unassigned) [Example 72] showed a pEC50 of 7.25.
`Cc1nccn1-c1ccc(C(=O)N(C2CC2)[C@H]2CCN(c3ccc(C(F)(F)F)cn3)C[C@H]2F)cn1` (single isomer, unassigned) [Example 73] gave a pEC50 of 6.41.
Compound `Cc1ncn(-c2cnc(C(=O)N(C3CC3)[C@H]3CCN(c4ccc(C(F)(F)F)cn4)C[C@H]3F)cn2)n1` (single isomer, unassigned) [Example 74] had a pEC50 of 6.39.
For `Cc1nccn1-c1cnc(C(=O)N(C2CC2)[C@H]2CCN(c3ccc(C(F)(F)F)cn3)C[C@H]2F)cn1` (single isomer, unassigned) [Example 75] the value was 6.47; for `Cc1ncnn1-c1ccc(C(=O)N(C2CC2)[C@@H]2CCN(c3ccc(C(F)(F)F)cn3)C[C@@H]2F)cn1` (single isomer, unassigned) [Example 76], 7.34.
As to `Cc1nnnn1-c1ccc(C(=O)N(C2CC2)[C@@H]2CCN(c3ccc(C(F)(F)F)cn3)C[C@@H]2F)cn1` (single isomer, unassigned) [Example 77], the pEC50 is 7.89.
In turn, `O=C(c1cnc(-n2cncn2)cn1)N(C1CC1)[C@@H]1CCN(c2ccc(C(F)(F)F)cn2)C[C@@H]1F` (single isomer, unassigned) [Example 78] had a pEC50 of 8.05.
Next, `O=C(c1cnc(-n2cncn2)nc1)N(C1CC1)[C@@H]1CCN(c2ccc(C(F)(F)F)cn2)C[C@@H]1F` (single isomer, unassigned) [Example 80]: 6.95; `Cc1nccn1-c1ccc(C(=O)N(C2CC2)[C@@H]2CCN(c3ccc(C(F)(F)F)cn3)C[C@@H]2F)cn1` (single isomer, unassigned) [Example 81]: 7.47; `Cc1ncn(-c2cnc(C(=O)N(C3CC3)[C@@H]3CCN(c4ccc(C(F)(F)F)cn4)C[C@@H]3F)cn2)n1` (single isomer, unassigned) [Example 82]: 7.46.
Turning to `Cc1nccn1-c1cnc(C(=O)N(C2CC2)[C@@H]2CCN(c3ccc(C(F)(F)F)cn3)C[C@@H]2F)cn1` (single isomer, unassigned) [Example 83], the pEC50 is 7.92.
Next, `CCc1cnc(N2CC[C@@H](N(C(=O)c3ccc(-n4ncnc4C)nc3)C3CC3)[C@@H](F)C2)nc1` (single isomer, unassigned) [Example 84]: 7.82; `CCc1cnc(N2CC[C@@H](N(C(=O)c3ccc(-n4nnnc4C)nc3)C3CC3)[C@@H](F)C2)nc1` (single isomer, unassigned) [Example 85]: 7.70; `CCc1cnc(N2CC[C@@H](N(C(=O)c3cnc(-n4cncn4)cn3)C3CC3)[C@@H](F)C2)nc1` (single isomer, unassigned) [Example 86]: 8.30.
For `CCc1cnc(N2CC[C@@H](N(C(=O)c3cnc(-n4ccnc4C)nc3)C3CC3)[C@@H](F)C2)nc1` (single isomer, unassigned) [Example 87] the value was 8.40.
For `CCc1cnc(N2CC[C@@H](N(C(=O)c3ccc(-n4ccnc4C)nc3)C3CC3)[C@@H](F)C2)nc1` (single isomer, unassigned) [Example 88] the value was 7.54; for `CCc1cnc(N2CC[C@@H](N(C(=O)c3cnc(-n4cnc(C)n4)cn3)C3CC3)[C@@H](F)C2)nc1` (single isomer, unassigned) [Example 89], 7.74; for `CCc1cnc(N2CC[C@@H](N(C(=O)c3cnc(-n4ccnc4C)cn3)C3CC3)[C@@H](F)C2)nc1` (single isomer, unassigned) [Example 90], 7.36.
In the case of `CCc1cnc(N2CC[C@@H](N(C(=O)c3cnc(-n4cncn4)nc3)C3CC3)[C@@H](F)C2)nc1` (single isomer, unassigned) [Example 91], the pEC50 was 6.69. This pEC50 lies 0.67 log units lower than the previous one.
For `CCc1cnc(N2CC[C@@H](N(C(=O)c3cnc(-n4cncn4)cn3)C3CC3)[C@@H](F)C2)nc1` (single isomer, unassigned) [Example 92] the value was 6.22.
Next, `Cc1ncnn1-c1ccc(C(=O)N(C2CC2)[C@@H]2CCN(c3ncc(Cl)cn3)C[C@@H]2F)cn1` (single isomer, unassigned) [Example 93]: 7.62; `Cc1nnnn1-c1ccc(C(=O)N(C2CC2)[C@@H]2CCN(c3ncc(Cl)cn3)C[C@@H]2F)cn1` (single isomer, unassigned) [Example 94]: 8.10.
Next, `Cc1nccn1-c1ncc(C(=O)N(C2CC2)[C@@H]2CCN(c3ncc(Cl)cn3)C[C@@H]2F)cn1` (single isomer, unassigned) [Example 95]: 8.15.
`O=C(c1cnc(-n2cncn2)nc1)N(C1CC1)[C@@H]1CCN(c2ncc(Cl)cn2)C[C@@H]1F` (single isomer, unassigned) [Example 96] gave a pEC50 of 7.19.
Consider `Cc1nccn1-c1ccc(C(=O)N(C2CC2)[C@@H]2CCN(c3ncc(Cl)cn3)C[C@@H]2F)cn1` (single isomer, unassigned) [Example 97], for which the pEC50 was 7.49.
For `Cc1ncn(-c2cnc(C(=O)N(C3CC3)[C@@H]3CCN(c4ncc(Cl)cn4)C[C@@H]3F)cn2)n1` (single isomer, unassigned) [Example 98] the value was 7.85; for `Cc1nccn1-c1cnc(C(=O)N(C2CC2)[C@@H]2CCN(c3ncc(Cl)cn3)C[C@@H]2F)cn1` (single isomer, unassigned) [Example 99], 7.74; for `Cc1ncnn1-c1ncc(C(=O)N(C2CC2)[C@@H]2CCN(c3ncc(Cl)cn3)C[C@@H]2F)cn1` (single isomer, unassigned) [Example 100], 6.87.
For `Cc1nccn1-c1ncc(C(=O)N(C2CC2)[C@@H]2CCN(c3ncc(C(F)(F)F)cn3)C[C@@H]2F)cn1` (single isomer, unassigned) [Example 101] the value was 8.30; for `O=C(c1cnc(-n2cncn2)nc1)N(C1CC1)[C@@H]1CCN(c2ncc(C(F)(F)F)cn2)C[C@@H]1F` (single isomer, unassigned) [Example 102], 7.30; for `Cc1ncnn1-c1ncc(C(=O)N(C2CC2)[C@@H]2CCN(c3ccc(C(F)(F)F)cn3)C[C@@H]2F)cn1` (single isomer, unassigned) [Example 103], 6.41.
Next, `CCc1cnc(N2CC[C@@H](N(C(=O)c3cn(-c4ccc(C#N)cn4)cn3)C3CC3)[C@@H](F)C2)nc1` (single isomer, unassigned) [Example 107]: 6.73.
`CCc1cnc(N2CC[C@@H](N(C(=O)c3cn(-c4ccc(S(C)(=O)=O)cc4F)cn3)C3CC3)[C@@H](F)C2)nc1` (single isomer, unassigned) [Example 108] had a pEC50 of 7.09.
Next, `CCc1cnc(N2CCC(N(C(=O)c3cn(-c4ccc(C#N)cc4F)cn3)C3CC3)C(F)C2)nc1` (single isomer, unassigned) [Example 109]: 7.28; `CCc1cnc(N2CC[C@@H](N(C(=O)c3cn(-c4ccc(C#N)cn4)c(C)n3)C3CC3)[C@@H](F)C2)nc1` (single isomer, unassigned) [Example 110]: 6.44.
Next, `CCc1cnc(N2CC[C@@H](N(C(=O)c3cn(-c4ccc(S(C)(=O)=O)cc4F)c(C)n3)C3CC3)[C@@H](F)C2)nc1` (single isomer, unassigned) [Example 111]: 5.79.
Next, `CCc1cnc(N2CC[C@@H](N(C(=O)c3cn(-c4ccc(C#N)cc4F)c(C)n3)C3CC3)[C@@H](F)C2)nc1` (single isomer, unassigned) [Example 112]: 6.10; `Cc1nccn1-c1ccc(C(=O)N(C2CC2)C2CCN(c3ncc(C(F)(F)F)cc3F)CC2)cn1` [Example 43]: 7.14.
In turn, `Cc1ncnn1-c1ccc(C(=O)N(C2CC2)C2CCN(c3ncc(C(F)(F)F)cc3F)CC2)cn1` [Example 44] had a pEC50 of 7.66.
As to `O=C(c1cnc(-n2cncn2)cn1)N(C1CC1)C1CCN(c2ncc(C(F)(F)F)cc2F)CC1` [Example 46], the pEC50 is 7.11.
